This passage reports ED50, IC50 and Kb results from ChEMBL document CHEMBL1129058, “Indole inhibitors of human nonpancreatic secretory phospholipase A2. 2. Indole-3-acetamides with additional functionality” (J Med Chem, 1996).

The species entered for one test is Cavia porcellus. In words: Effective dose of compound against contraction of Guinea pig lung tissue with arachidonic acid. The format is functional.
The target of test [1] is T1, Phospholipase A2, membrane associated (Homo sapiens, UniProt P14555).
T1 sequence (P14555 whole entry): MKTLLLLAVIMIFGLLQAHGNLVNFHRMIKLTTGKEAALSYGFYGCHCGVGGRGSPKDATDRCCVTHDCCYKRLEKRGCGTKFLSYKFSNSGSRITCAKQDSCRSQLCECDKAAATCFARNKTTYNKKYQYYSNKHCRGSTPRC
The test can be described thus: Inhibition of human non-pancreatic secretory phospholipase A2 (PLA2) in a chromogenic assay.

Test [2] concerns the target T2, Phospholipase A2, membrane associated (Homo sapiens) (UniProt P14555).
T2 sequence (whole entry): T1 sequence (P14555 whole entry)
In words: Inhibitory activity against contraction of Guinea pig lung tissue induced by PLA2. It is filed as functional, tissue-based. To be noted: Cavia porcellus, target entry is the homologue from another species.

Values joined by “and” are separate entries in the source; they are usually repeats but may differ in a detail not shown here. Identical values can stand only once.

The term IC50 denotes the midpoint of a concentration-inhibition curve. A high value points to lower potency.

In the test filed under Cavia porcellus, `Cc1c(CC(N)=O)c2cc(OCCCCC(=O)O)ccc2n1Cc1ccccc1` gave an ED50 above 30000 nM. This compound also displayed an IC50 in test [1] of 1150 nM. The same compound yielded a Kb in test [2] of 8800 nM.
As to `CCc1c(CC(N)=O)c2cc(OCCCP(=O)(O)O)c(C(C)C)cc2n1Cc1ccccc1`, it took 40 nM to reach half-maximal inhibition in test [1] (IC50). Further, the Kb in test [2] stood at 698 nM.
As for `Cc1c(CC(N)=O)c2cc(NCCCC(=O)O)ccc2n1Cc1ccccc1`, in test [1], the 50% inhibitory concentration (IC50) is 1830 nM.
Turning to `CCc1c(CC(N)=O)c2cc(OCCCC(=O)O)c(C)cc2n1Cc1ccccc1`, the concentration for half-maximal inhibition (IC50) in test [1] is 33 nM. Besides, the Kb in test [2] came to 206 nM.
`Cc1cc(SCCCC(=O)O)cc2c(CC(N)=O)c(C)n(Cc3ccccc3)c12` gave a 50% inhibitory concentration (IC50) in test [1] of 51 nM.
Same read-out and setting: the value for `C=CCc1c(O)ccc2c1c(CC(N)=O)c(CC)n2Cc1ccccc1` was 143 nM.
The compound `Cc1c(CC(N)=O)c2c(OCC(=O)O)cccc2n1Cc1ccccc1-c1ccccc1` yielded a Kb in test [2] of 140 nM.
In turn, `NC(=O)Cc1cn(Cc2ccccc2)c2cccc(OCC(=O)O)c12` displayed a half-maximal inhibitory concentration (IC50) in test [1] of 321 nM.
On the same count and under the same terms, the figure for `CCc1c(CC(N)=O)c2cc(OCCCP(=O)(OC)OC)ccc2n1Cc1ccccc1` is 266 nM.
Take `NC(=O)Cc1c(Br)n(Cc2ccccc2)c2ccc(OCCCP(=O)(O)O)cc12` [listing 1 of 3 here]: in test [2], the Kb is 440 nM and 1550 nM.
`COC(=O)COc1cccc2c1c(CC(N)=O)c(C)n2Cc1ccccc1` displayed a half-inhibitory concentration (IC50) in test [1] of 1380 nM.
Same read-out and setting: the figure for `Cc1c(CC(N)=O)c2cc(OCCCC3=NNNN3)ccc2n1Cc1ccccc1` is 2450 nM.
Compound `NC(=O)Cc1c(Br)n(Cc2ccccc2)c2cc(Cl)c(OCCCC(=O)O)cc12` showed an ED50 in the test filed under Cavia porcellus above 10000 nM.
For `NC(=O)Cc1cn(Cc2ccccc2)c2ccc(OCCCP(=O)(O)O)cc12`, in test [1], half-maximal inhibition (IC50) required 203 nM.
The compound `CCc1c(CC(N)=O)c2cc(OCCCP(=O)(O)OC)ccc2n1Cc1ccccc1` displayed an ED50 in the test listed under Cavia porcellus above 10000 nM. In addition, the IC50 in test [1] is 40 nM. This compound also showed a Kb in test [2] of 340 nM.
In the test filed under Cavia porcellus, `CCc1c(CC(N)=O)c2cc(OCCCP(=O)(O)O)ccc2n1Cc1ccccc1` registered an ED50 above 10000 nM.
Compound `Cc1c(CC(=O)O)c2cc(OCCCC(=O)O)ccc2n1Cc1ccccc1` returned an IC50 in test [1] of 25900 nM.
The compound `CCc1c(CC(N)=O)c2cc(OCCCS(=O)(=O)O)ccc2n1Cc1ccccc1` displayed an ED50 in the test filed under Cavia porcellus above 10000 nM.
As to `CCc1c(CC(N)=O)c2cc(SCCCP(=O)(O)O)ccc2n1Cc1ccccc1`, the midpoint of inhibition in test [1], the IC50, lay at 58 nM.
Compound `Cc1c(CC(N)=O)c2ccc(OCCCC(N)=O)cc2n1Cc1ccccc1` returned a half-inhibitory concentration (IC50) in test [1] of 5830 nM.
Still for that read-out and setting: the value for `CCc1c(CC(N)=O)c2cc(SCCC(=O)O)ccc2n1Cc1ccccc1` was 59 nM.
Compound `Cc1c(CC(N)=O)c2cc(OCc3ccccc3C(=O)O)ccc2n1Cc1ccccc1` gave an ED50 in the test listed under Cavia porcellus above 10000 nM. Inhibition in test [1] was half-maximal at 147 nM (IC50). The compound also gave a Kb in test [2] of 720 nM.
For the compound `CCc1c(CC(N)=O)c2cc(SCCCC(=O)O)c(C)cc2n1Cc1ccccc1`, inhibition in test [1] was half-maximal at 22 nM (IC50).
In test [1], `CCc1c(CC(N)=O)c2cc(OCCCP(=O)(O)O)c(C)cc2n1Cc1ccccc1` gave a 50% inhibitory concentration (IC50) of 15 nM. Also, the Kb in test [2] is 202 nM.
Compound `Cc1c(CC(N)=O)c2ccc(OCCCC(=O)NN)cc2n1Cc1ccccc1` gave an IC50 in test [1] of 1270 nM.
Still for that read-out and setting: the value for `Cc1c(CC(N)=O)c2cc(Oc3cccc(C(=O)O)c3)ccc2n1Cc1ccccc1` was above 110000 nM.
In the test listed under Cavia porcellus, `NC(=O)Cc1c(Br)n(Cc2ccccc2)c2ccc(OCCCC(=O)O)cc12` displayed an ED50 above 10000 nM. In addition, inhibition in test [1] was half-maximal at 73 nM (IC50). In test [2], this compound returned a Kb of 530 nM.
Turning to `Cc1c(CC(N)=O)c2cc(O)ccc2n1Cc1ccccc1`, the IC50 in test [1] worked out at 1020 nM.
As for `CCCc1c(CC(N)=O)c2cc(OCCCP(=O)(O)O)ccc2n1Cc1ccccc1`, the half-inhibitory concentration (IC50) in test [1] came to 6130 nM.
In turn, `CSc1c(CC(N)=O)c2cc(OCCCC(=O)O)ccc2n1Cc1ccccc1` yielded an ED50 in the test filed under Cavia porcellus above 10000 nM. Also, in test [1], inhibition was half-maximal at 162 nM (IC50). In test [2], the Kb came out at 630 nM.
On to `Cc1c(CC(N)=O)c2cc(OCCC(=O)O)ccc2n1Cc1ccccc1`, for which, in the test listed under Cavia porcellus, the ED50 is above 30000 nM. Besides, in test [1], the half-maximal inhibitory concentration (IC50) worked out at 527 nM. Moreover, the Kb in test [2] is 3760 nM.
For `Cc1c(CC(=O)NN)c2cc(OCCCP(=O)([O-])[O-])ccc2n1Cc1ccccc1.[Na+].[Na+]`, the ED50 in the test filed under Cavia porcellus was above 10000 nM. Besides, the half-inhibitory concentration (IC50) in test [1] came to 462 nM. The Kb in test [2] came to 1070 nM.
`Cc1c(CC(N)=O)c2c(OCC(=O)O)cccc2n1Cc1ccccc1`: the ED50 in the test filed under Cavia porcellus was above 10000 nM.
For `NC(=O)Cc1c(Br)n(Cc2ccccc2)c2cc(Cl)c(O)cc12`, the IC50 in test [1] was found to be 85 nM. This counts as double-digit nanomolar.
`CCc1c(CC(N)=O)c2cc(OCCCP(=O)(O)O)ccc2n1Cc1cccc(Cl)c1`: the Kb in test [2] is 240 nM.
With `NC(=O)Cc1cn(Cc2ccccc2)c2ccc(OCCCC(=O)O)cc12`, 180 nM corresponded to half-maximal inhibition in test [1] (IC50).
On the same count and under the same terms, the figure for `CSc1c(CC(N)=O)c2cc(OCCCC(N)=O)ccc2n1Cc1ccccc1` is 93 nM.
`Cc1c(CC(N)=O)c2cc(OCC(=O)O)ccc2n1Cc1ccccc1` showed an ED50 in the test filed under Cavia porcellus above 30000 nM. The compound further came in with an IC50 in test [1] of 1790 nM. Also, the Kb in test [2] was 8220 nM.
Consider `Cc1c(CC(N)=O)c2c(O)cccc2n1Cc1cccc(Cl)c1`, for which the 50% inhibitory concentration (IC50) in test [1] worked out at 5880 nM.
`Cc1c(CC(N)=O)c2cc(CCCC(=O)O)ccc2n1Cc1ccccc1`: the IC50 in test [1] turned out to be 155 nM. The Kb in test [2] was determined as 332 nM.
As for `NC(=O)Cc1c(Cl)n(Cc2ccccc2)c2ccc(OCCCC(=O)O)cc12`, the ED50 in the test listed under Cavia porcellus was above 30000 nM. In test [1], the IC50 amounted to 77 nM. The same compound had a Kb in test [2] of 610 nM.
Compound `CCc1c(CC(N)=O)c2c(OCC(=O)O)cccc2n1Cc1ccccc1` came in with an ED50 in the test filed under Cavia porcellus above 3000 nM.
As for `Cc1c(CC(N)=O)c2cc(NCCC(=O)O)ccc2n1Cc1ccccc1`, in test [1], half-maximal inhibition (IC50) required 3370 nM.
With `CCc1c(CC(N)=O)c2cc(SCCCC(=O)O)ccc2n1Cc1ccccc1`, in test [1], inhibition was half-maximal at 23 nM (IC50). Moreover, the Kb in test [2] is 124 nM.
The compound `Cc1c(CC(N)=O)c2cc(OCCCP(=O)(O)O)ccc2n1Cc1ccccc1-c1ccccc1` yielded an ED50 in the test listed under Cavia porcellus above 10000 nM.
Regarding `Cc1c(CC(N)=O)c2c(OCP(=O)(O)O)cccc2n1Cc1ccccc1`, in the test filed under Cavia porcellus, the ED50 was above 10000 nM.
`NC(=O)Cc1c(Br)n(Cc2ccccc2)c2ccc(OCCCP(=O)(O)O)cc12` [listing 2 of 3 here]: the IC50 in test [1] worked out at 165 nM.
On the same count and under the same terms, the value for `Cc1c(CC(N)=O)c2c(O)cccc2n1Cc1ccccc1` was 8280 nM; that for `Cc1cc(OCCCC(=O)O)cc2c(CC(N)=O)c(C)n(Cc3ccccc3)c12` was 75 nM; that for `CCc1c(C(N)=O)c2c(OCC(=O)O)cccc2n1Cc1cccc(Cl)c1` was 16800 nM.
For `NC(=O)Cc1c(Br)n(Cc2ccccc2)c2ccc(OCCCP(=O)(O)O)cc12` [listing 3 of 3 here], in the test listed under Cavia porcellus, the ED50 was above 10000 nM. Moreover, in test [1], the midpoint of inhibition, the IC50, lay at 33 nM.
In the test filed under Cavia porcellus, `CCOC(=O)CCCCOc1ccc2c(CC(N)=O)c(C)n(Cc3ccccc3)c2c1` came in with an ED50 above 30000 nM. In addition, the IC50 in test [1] came to 306 nM. In test [2], this compound gave a Kb of 22500 nM.
In test [1], `Cc1c(CCC(N)=O)c2cc(OCCCC(=O)O)ccc2n1Cc1ccccc1` gave an IC50 of 6930 nM.
As for `NC(=O)Cc1c(C2CC2)n(Cc2ccccc2)c2ccc(OCCCP(=O)(O)O)cc12`, in test [1], the IC50 was 74 nM. Also, the Kb in test [2] is 900 nM.
Consider `CCc1c(CC(N)=O)c2cc(OCCCC(=O)O)ccc2n1Cc1ccccc1`, for which the ED50 in the test listed under Cavia porcellus was above 10000 nM.
In the case of `Cc1c(CC(N)=O)c2c(OCC(=O)NN)cccc2n1Cc1ccccc1`, in test [1], half-maximal inhibition (IC50) was put at 422 nM. This compound also yielded a Kb in test [2] of 1950 nM.
With `Cc1c(CC(N)=O)c2cc(OCCCP(=O)(O)O)ccc2n1Cc1ccccc1`, the ED50 in the test filed under Cavia porcellus was above 10000 nM.
In turn, `NC(=O)Cc1c(C2CC2)n(Cc2ccccc2)c2ccc(OCCCC(=O)O)cc12` came in with an IC50 in test [1] of 44 nM.
The same measure, in the same setting: the value for `CCc1c(CC(N)=O)c2cc(SCCCC(=O)O)c(C(C)C)cc2n1Cc1ccccc1` was 33 nM; that for `NC(=O)Cc1cn(Cc2ccccc2)c2ccc(OCP(=O)(O)O)cc12` was 3680 nM; that for `CCCc1c(CC(N)=O)c2cc(O)ccc2n1Cc1ccccc1` was 34000 nM.
The compound `Cc1c(CC(=O)NN)c2cc(OCCCC(=O)O)ccc2n1Cc1ccccc1` returned an ED50 in the test listed under Cavia porcellus above 30000 nM. This compound came in with an IC50 in test [1] of 1020 nM. The Kb in test [2] was 2170 nM.
The compound `CCc1c(CC(N)=O)c2cc(OCc3ccccc3C(=O)O)ccc2n1Cc1ccccc1` returned an IC50 in test [1] of 555 nM.
`Cc1c(CC(N)=O)c2cc(OCCCC(=O)O)ccc2n1Cc1ccccc1` returned an ED50 in the test filed under Cavia porcellus above 30000 nM.
`Cc1c(CC(N)=O)c2c(OCC(=O)O)cccc2n1Cc1cccc(Cl)c1` registered a concentration for half-maximal inhibition (IC50) in test [1] of 52 nM. Also, the Kb in test [2] came out at 190 nM.
